# Assay results published in ChEMBL document CHEMBL3507680, “University of Dundee, Gates Library screen for HepG2 cell viability”.
# Assay: Human HepG2 cell viability assay in 384 well format
# Format: toxicity, cell-based
# Design: dose 125 nL, time 70.5 hour; cytotoxicity at 70.5 h: concentration not given beside the values
# Settings: HepG2 cells, read-out: Inhibition
row,SMILES,cytotoxicity at 70.5 h [%]
1,CCC(C)NS(=O)(=O)c1ccc(/C=C\c2onc(C)c2NC(C)=O)cc1 (stereo not drawn),-4.12
2,COc1ccc2c(c1)OCC(CNC(=O)c1cnc(NC(C)C)nc1)C2 (stereo not drawn),12.5
3,Cc1nc(C)n(CC2CCCCN2c2ccnc(-c3ccccc3)n2)n1 (stereo not drawn),5.38
4,COCCNC(=O)Cn1nc(C(C)C)c2cnn(C(C)(C)C)c2c1=O,-3.75
5,O=C1NCCCc2[nH]c(Cc3cccc(Cl)c3)nc21,0.226
6,N#CC1(NC(=O)COC(=O)Cn2cccn2)CCCC1,-7.86
7,N#Cc1ccc(N2CCN(c3ncccn3)CC2)c(C(F)(F)F)c1,8.58
8,N#Cc1cn(C2CC2)c(=O)n(CC(O)c2ccc(Cl)cc2)c1=O (stereo not drawn),-3.7
9,O=C(CC1=CCCCC1)Nc1ncn(CC(=O)N2CCCCCC2)n1,-6.09
10,O=C(C1CC1)N1CCCCCC1C1CCN(c2ncccn2)CC1 (stereo not drawn),-9.64
11,O=C(Cc1c[nH]c2ncccc12)NCC(O)c1ccsc1 (stereo not drawn),0.0548
12,CC(=O)N1N=C(c2ccco2)OC1C(=O)NCCc1ccc(O)cc1 (stereo not drawn),-2.51
13,Cc1nc(N(C)C)nc(C)c1NS(=O)(=O)c1ccc(OC(F)(F)F)cc1,-6.13
14,CCCc1n[nH]c(C2CN(C(=O)c3cccc4cn[nH]c34)CCO2)n1 (stereo not drawn),-5.95
15,FC(F)(F)c1ccnc(N2CCCCCC2)c1,-10.6
16,COc1c(CNC2CCc3cc(F)ccc32)c(C(C)C)nn1C (stereo not drawn),16.8
17,O=C1NCCN1C1CCN(Cc2nc(-c3ccc(F)cc3)no2)CC1,25
18,CCc1cc(NCc2ccc(-n3cncn3)c(C)c2)n(C)n1,2.61
19,Cc1ccc(C(=O)Nc2cn[nH]c2)cc1F,13.5
20,Cc1ncc(-c2ccncc2)c(C2CCCN(C(=O)c3ccno3)C2)n1 (stereo not drawn),5.49
21,COc1ccc(CC(=O)N2CCC(c3nnc4n3CCC4)CC2)cc1F,-5.72
22,Cc1nc(CN2CCOCC2c2[nH]ncc2C)cs1 (stereo not drawn),1.5
23,COCc1ncc(CN2CC(Oc3c(C)cccc3C)C2)cn1,-0.994

row,SMILES,cytotoxicity at 70.5 h [%]
1,Cc1nnc(NC(=O)c2c3c(nn2C2CCS(=O)(=O)C2)CCC3)s1 (stereo not drawn),-4.4
2,CC(=O)Nc1ncc(S(=O)(=O)Nc2cccc(F)c2)s1,-8.84
3,CCc1nc(N2CCN(c3ncccn3)CC2)c2cnn(C)c2n1,-5.59
4,CC(CN1CCC(CCO)CC1)n1cnc2ccccc21 (stereo not drawn),-11.4
5,CCOc1ccc(NC(C)c2nnnn2-c2ccccc2)cc1CO (stereo not drawn),-66.6
6,CC(=O)c1cccc(OCCCC(=O)N(C)Cc2ccccn2)c1,-2.88
7,COC(=O)NCC(=O)N1CCC(c2nc3cc(F)ccc3[nH]2)CC1,-2
8,CN(CCCOc1ccccc1Cl)C(=O)CN1C[C@@H]2CC[C@H](CC1=O)N2,-2.68
9,CCOc1ccc(CCCC(=O)N2CCC(c3nnn[nH]3)CC2)cc1C,-11.9
10,Cc1nc(CN2CCO[C@H]3CN(C(=O)c4cscn4)C[C@H]32)cs1,-5.86
11,COc1ccc(C(N)=O)cc1NCc1ncc(-c2cccs2)o1,-14
12,OC1(CNCCSc2ccccn2)CNCCOC1 (stereo not drawn),1.38
13,CN(Cc1ccco1)[C@@H]1CN(Cc2ccc(F)cc2)C[C@@H]2CCCO[C@@H]21,2.25
14,CC(C)(C)n1ncc2c1NC(=O)CC2c1cccc(O)c1 (stereo not drawn),-4.31
15,O=C1C[C@H]2CC[C@@H](CN1)N2C(=O)CCc1ccsc1,-9.38
16,Cc1cnn(-c2ccc(C(=O)N3CCCC(n4ccnc4C)C3)cc2)c1 (stereo not drawn),-4.35
17,O=C(NCCC1CN(Cc2cccnc2)CCO1)c1ccsc1 (stereo not drawn),6.62
18,Cc1nn(C)c(C)c1NC(=O)CCn1ncc2ccccc21,9.95
19,CC(=O)N1CC(c2ccnc(Nc3nccs3)n2)C1,-12.9
20,CCn1nc(C)c(NC(=O)CN2CC[C@H](CO)[C@@H](O)C2)c1C,-11.7
21,Cc1cc(CNC2CCc3nc(C(C)C)nn3C2)on1 (stereo not drawn),-5.91
22,Cc1nc2n(n1)CC(NCc1nc3ccccc3o1)CC2 (stereo not drawn),1.97
23,Cn1c(N)nnc1SC1CCCN(c2ccccc2F)C1=O (stereo not drawn),-1.56

row,SMILES,cytotoxicity at 70.5 h [%]
1,CC(C)CCN1C[C@H]2C[C@H](C(=O)Nc3cccnc3)[C@@H](C1)O2,-6.02
2,CC(C)N1CCC[C@H]1C(=O)NCC1CCN(c2cnn(C)c(=O)c2)CC1,-8.1
3,Cc1cc(CN2C[C@@H]3COC[C@]3(CNC(=O)c3ccsc3)C2)no1,-8.24
4,O=C(O)CCn1ccc2cc(Br)ccc21,9.71
5,CCC(C)(NCc1nc(C)c(C)o1)c1nccs1 (stereo not drawn),15.6
6,Cc1nn(C)c(C)c1C1COCCN1C(=O)NC1CC1 (stereo not drawn),19.2
7,O=C(CCS(=O)(=O)C1CCCC1)NCCc1cccc(O)c1,19.9
8,COc1ncccc1CNC(=O)c1cccc(C)n1,11.1
9,O=C(c1ncccn1)N1CCC[C@]2(C[C@@H](Oc3ncccc3F)CO2)C1,21.8
10,CN(C)C(=O)CCC(=O)NCc1cccnc1-n1cnc2ccccc21,-8.79
11,CNC(=O)C1CCCCN1C(=O)CCn1cnc2sccc2c1=O (stereo not drawn),-1.4
12,Cc1nn(C)c(N2CCCN(C)CC2)c1CNC(=O)CCC(C)C,-1.98
13,CC(=O)N1CCN(c2ccccc2CNc2cc(F)cc(F)c2)CC1,13.8
14,CN(C)c1cc2c(nn1)CCN(C(=O)c1ccc(-n3cccn3)nc1)C2,-25.2
15,Fc1ccc(C2(CNCCc3cccs3)CCOC2)cc1 (stereo not drawn),-6.84
16,C[C@H](NC(=O)C1(N(C)Cc2ccccc2)Cc2ccccc2C1)C(N)=O,-2.36
17,Cc1nn(C)c(C)c1CCC(=O)N1CCc2sccc2C1,23.2
18,Cc1cn(-c2ccccc2)nc1NS(=O)(=O)c1ccc(C(=O)O)cc1F,-18
19,CN1CCCC[C@@H]2[C@H]1[C@@H](c1ccccc1)CCN2C(=O)c1ccccn1,-9.11
20,O=S(=O)(Cc1ccccc1)NCC1CCCN(Cc2cccs2)C1 (stereo not drawn),-0.373
21,CCOC(=O)CNC(=O)NCc1cccn1Cc1ccc(F)cc1,22.9
22,Cc1ccc(-c2nnc(SCC(=O)O)n2-c2ccc(C)cc2)cc1,-15.4
23,CC(C)N1CCC(NC(=O)NCCC(=O)NCc2ccccc2)C1 (stereo not drawn),10.4

row,SMILES,cytotoxicity at 70.5 h [%]
1,COc1ccc(C2CCCN2C(=O)c2cc(C(C)C)on2)cc1 (stereo not drawn),-9.05
2,CCCN(CCC)S(=O)(=O)NC(C)C(=O)N(C)C (stereo not drawn),-6.45
3,CNC(=O)CN1CCOCC2(CN(CCC(F)(F)F)CCO2)C1 (stereo not drawn),4.91
4,Cc1ccc(C)c(OCC(O)CN(C)CC(=O)Nc2cc(C)on2)c1 (stereo not drawn),3.48
5,COCC(=O)N1CCN(Cc2nnc(C(C)(C)C)o2)CC1,-1.83
6,CN(C)C(=O)N1C[C@@H](C(=O)NCc2ccco2)C[C@H]2OCC[C@H]21,-4.06
7,CS(=O)(=O)N1CCc2[nH]cnc2C12CCN(C1CCOCC1)CC2,-6.93
8,Cc1ccc(OCCC(=O)NC(C)c2ccncc2)cc1 (stereo not drawn),-2.16
9,COc1ccc(Cn2c(=O)n(C)c(=O)c3sccc32)cc1,3.39
10,CCOC1CC2(CCN(C(=O)COC)CC2)c2cc(F)ccc21 (stereo not drawn),1.7
11,O=C(CNc1ccc(OC2CCOC2)cc1)NCc1ccco1 (stereo not drawn),-21.4
12,CCn1ccnc1C1CCN(C(=O)C(O)c2ccc(OC)cc2)CC1 (stereo not drawn),4.82
13,Cc1cc2c(=O)n3c(nc2s1)CCN(Cc1cncn1C)CC3,-7.45
14,CC(=O)N1CC2(CCN(C(=O)c3cccc4[nH]ccc34)CC2)C1,-8.74
15,O=C(Nc1ccccc1F)NC1(CO)CCOCC1,-12.1
16,O=C(Cn1ncc2c(c1=O)CCCC2)Nc1cccc2[nH]ccc12,6.81
17,Cc1nc2c(c(=O)n1C)CN(C(=O)C1CCCN(C(N)=O)C1)C2 (stereo not drawn),-4.13
18,CCN1CCN(c2ccc(F)cc2C(C)NCc2noc(C)n2)CC1 (stereo not drawn),-7.42
19,CC(C)N1CCN(S(=O)(=O)c2ncn(C)c2Cl)CC1,-4.74
20,CC(C#N)CSc1ccccc1NCC(=O)NCc1cccs1 (stereo not drawn),0.858
21,CCn1c(C)cc(C(=O)NCc2cccc(NS(C)(=O)=O)c2)c1C,16.2
22,Cc1ccnc(N2CCCC(c3nncn3C3CC3)C2)n1 (stereo not drawn),-2.88
23,CN(C)S(=O)(=O)N1CCN(C(=O)OC(C)(C)C)CC12CCCCC2,-6.87

row,SMILES,cytotoxicity at 70.5 h [%]
1,CS(=O)(=O)N1CCCCC12CCN(c1nncs1)CC2,-1.19
2,CCc1nccn1C1CCCN(C(=O)c2ccc3c(c2)OCCO3)C1 (stereo not drawn),-9.17
3,Cc1c(C)n(Cc2ccccn2)c2nc3c(c(N)c12)CCCCCC3,22
4,O=C(CC1CCCO1)NCc1ccc(Br)cc1F (stereo not drawn),-5.9
5,CCC1CN(C)c2ccccc2CN1C(=O)Nc1ccc(C)cc1 (stereo not drawn),-2.3
6,Cc1nc(C)n(CC2CCCCN2CCCS(N)(=O)=O)n1 (stereo not drawn),-5.16
7,CCN(C)CC(=O)N1CCc2nc(NC)nc(C(=O)N3CCCC3)c2C1,2.56
8,CCNc1nnc(SCC(=O)N2CCN(Cc3ccc(Cl)s3)CC2)s1,-0.322
9,CC(=O)N(Cc1noc(C)n1)C1CCN(Cc2c(C)noc2C)C1 (stereo not drawn),-0.736
10,COc1ccc(-c2nc(CCNc3nnc(C)c(C)c3C#N)co2)cc1,13.7
11,Clc1ccc2cccnc2c1CNC1CCc2ncnn2C1 (stereo not drawn),-5.27
12,COc1cc(CNC(C)Cn2ccnc2)cc2c1OCO2 (stereo not drawn),-10.9
13,CC(=O)N1CCOCC2(C1)CN(S(C)(=O)=O)CCO2 (stereo not drawn),-9.18
14,Cc1ccc(N2CCC3(CCN(Cc4csc(C)n4)C3=O)C2)nn1 (stereo not drawn),-3.25
15,COCc1ccc(C(=O)N2CC[C@H](O)[C@@H](n3ccnc3)CC2)cc1,-6.05
16,OC(CNc1cncc(OCc2ccccc2)n1)c1ccco1 (stereo not drawn),-5.66
17,O=C(c1ccco1)N1CCO[C@@H]2CN(c3ccccc3)CC[C@@H]2C1,29.2
18,Cc1ncsc1C(=O)NCc1cccs1,-16.4
19,Cn1cc(C2CCCN2C(=O)CCCc2ccccn2)cn1 (stereo not drawn),-7.85
20,Cc1ccc2c(n1)N(CC1CC1)CCN(C(=O)NC1CC1)C2,-7.71
21,CS(=O)(=O)NCCCNc1ccc(C(F)(F)F)cc1C#N,-3.55
